In patent US20230405002A1, “COMBINATIONS OF DIACYLGLYCEROL ACYLTRANSFERASE 2 INHIBITORS AND ACETYL-COA CARBOXYLASE INHIBITOR” (Pfizer Inc., priority 2020, published 2023):
Counter-ions that a name gives are not always drawn.

Key:
[1] = target: human DGAT2 (hDGAT2) (Homo sapiens (Human), UniProt Q96PD7); assay: In vitro DGAT2 assay, determination of IC50 values; type: biochemical; conditions: geometric mean; hDGAT2 membrane fraction
[2] = target: DGAT2 in human hepatocytes (Homo sapiens (Human), UniProt Q96PD7); assay: Determination of IC50 values for DGAT2 inhibitors in human hepatocytes; type: cell-based; conditions: geometric mean; cryopreserved human hepatocytes, DGAT1 inhibitor 3 μM present
Description: For evaluation of the effects of DGAT2 inhibitors in a cell-based setting, cryopreserved human hepatocytes (Lot DOO, Celsis, Baltimore, MD) were thawed and plated onto type I collagen-coated plates according to the manufacturer's instructions. After 18 hours overnight recovery period, the cells were overlayed with media containing 250 μg/mL Geltrex Basement Membrane Matrix (Thermo Fisher). The following day, media was aspirated and replaced with serum-free Williams Media E (Thermo Fisher) containing 400 μM sodium dodecanoate (Sigma-Aldrich, St. Louis, MO) and 2 mM GlutaMAX (Thermo Fisher). […] DGAT2 inhibitors were then added to the desired final concentration. After a 15 minute preincubation, 0.2 μCi [^14C(U)]-glycerol (Perkin Elmer) was added to each well followed by a 3 hour incubation. At this point the media was removed, and the cells lysed via orbital shaking in isopropyl alcohol: tetrahydrofuran (9:1) for 15 minutes prior to centrifugation at 3000 rpm for 10 minutes. Radiolabeled lipids were resolved using a solvent system by thin layer chromatography with the solvent consisting of hexanes: diethyl ether: glacial acetic acid (75:23:2, v/v/v). After separation, radiolabeled lipids were visualized using the Typhoon 9500 phosphorimaging system (GE). The half maximal inhibitory concentrations (IC50 values) were determined by nonlinear regression analysis of the % inhibition dose response curve using GraphPad Prism (GraphPad Software, Inc., La Jolla, CA).
Table 12 below provides the IC50 values of selected Examples for inhibition of DGAT2 in human hepatocytes in accordance with the above-described assay. Results are reported as geometric mean IC50 values, with the number of replicates (n) shown.

[3] = system: human liver microsomes; assay: Intrinsic clearance in human liver microsomes; conditions: human liver microsome assay, 1 μM
Description: The high throughput human microsomal stability assay was performed in a 384-well format (Di, L., et al. 2012, Eur. J. Med. Chem., 57, 441-448). All liquid handling and incubation were conducted with a Biomek FX (Beckman Coulter, Inc., Indianapolis, IN), equipped with one 3-position Mecour heated deck positions. Pooled human liver microsomes of 50 donors (Lot: HLM-103) were purchased from BD Biosciences (Bedford, MA). Each incubation contained test compound (1 μM), human liver microsomes (0.25 μM CYP protein equivalent to 0.806 mg/mL protein concentration), NADPH 20.9 mM, MgCl2 (3.3 mM) and potassium phosphate buffer (100 mM at pH 7.4). The final reaction volume was 45 μL containing 0.1% DMSO. The incubations were conducted at 37° C. At various time points (e.g. 1, 4, 7, 12, 20, 25, 45 and 60 min), cold acetonitrile with mass spectrometry (MS) internal standard (Example 39A, WO1999/57125) was added to quench the reaction. The plates were centrifuged at 3000 rpm for 1 min at 4° C. […] The plates were sealed and subsequently analyzed using LC-MS/MS. Control plates were prepared in the same manner without adding the NADPH cofactor to monitor any non-CYP/FMO catalyzed decline. […] The data are presented as the mean+/− standard deviation, with the number of replicates (n) shown.

[4] = Determination of pKa (capillary electrophoresis); conditions: most basic pKa, mean
[5] = system: human hepatocytes; assay: High throughput intrinsic clearance in human hepatocytes; conditions: high throughput human hepatocyte assay, 1 μM
Description: The high throughput human hepatocyte stability assay was performed in a 384-well format (Di, L., et al. 2012, Eur. J. Med. Chem., 57, 441-448). Pooled cryopreserved human hepatocytes of 10 donors were purchased from BioreclamationlVT (Baltimore, MD, Lot DCM). The cryopreserved human hepatocytes were thawed, and re-suspended in Williams E medium (WEM GIBCO, custom formula #A28859EA) supplemented with HEPES and Na2CO3. The cells were counted using the Trypan Blue exclusion method. The Multidrop® liquid dispenser (Multidrop DW, Thermo Scientific, Waltham, MA) was used to add the hepatocyte suspensions to the 384-well plates. The cell plates were covered and transferred to a Sciclone® ALH 3000 workstation (Caliper Life Sciences, Hopkinton, MA), equipped with two 6-position Mecour heat exchangers. Test compounds were diluted on the Sciclone® with buffer and added to the hepatocytes. The final incubation contained 0.5 million cells/mL and 1 μM test compound in 15 μL total volume with 0.01% DMSO. The incubation was carried out at 37° C. At various time points (0, 3, 10, 30, 60, 120, 240 min), the reactions were quenched with cold acetonitrile containing internal standard (Example 39A, WO1999/57125). The samples were centrifuged (Eppendorf, Hauppauge, NY) at 3000 rpm for 5 min at 4° C. The supernatants were transferred using the BioMek® FX liquid handler (Beckman Coulter, Inc. Danvers MA) to new plates with water addition, which were sealed prior to LC-MS/MS analysis. […] The data are presented as the mean+/− standard deviation, with the number of replicates (n) shown.

human DGAT2 (hDGAT2), sequence (Q96PD7 whole entry): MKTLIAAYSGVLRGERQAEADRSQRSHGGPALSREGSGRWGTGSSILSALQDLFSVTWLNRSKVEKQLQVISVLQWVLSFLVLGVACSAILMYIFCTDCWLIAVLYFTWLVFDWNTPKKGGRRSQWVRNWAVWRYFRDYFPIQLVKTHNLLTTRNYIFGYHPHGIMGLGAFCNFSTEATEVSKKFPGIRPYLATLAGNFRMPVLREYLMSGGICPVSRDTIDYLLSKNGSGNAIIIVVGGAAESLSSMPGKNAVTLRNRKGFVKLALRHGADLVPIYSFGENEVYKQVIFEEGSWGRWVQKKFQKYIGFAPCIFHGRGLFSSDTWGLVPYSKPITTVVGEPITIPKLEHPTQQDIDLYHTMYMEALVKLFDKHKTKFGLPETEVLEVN
DGAT2 in human hepatocytes, sequence (Q96PD7 whole entry): as above

Compound | IC50 [1] [nM] | CLint (+/− STD Dev) [3] [µL/min/mg] | also measured
CCOc1cccnc1Oc1cncc(-c2ncc(C(=O)N[C@@H]3CNCC[C@@H]3F)cn2)c1.O=C(O)C(F)(F)F.O=C(O)C(F)(F)F [Example 3, 2-{5-[(3-Ethoxypyridin-2-yl)oxy]pyridin-3-yl}-N-[(3R,4S)-4-fluoropiperidin-3-yl]pyrimidine-5-carboxamide, bis(trifluoroacetate) salt] | 40 | <7 | IC50 [2]: 23 nM; Basic pKa [4]: 8.1; CLint (+/− Std Dev) [5]: <1.9 +/− 0.35 μL/min/10^6 cells
CCOc1cccnc1Oc1cncc(-c2ncc(C(=O)NC3CCC(C(F)(F)F)NC3)cn2)c1 (single isomer, unassigned; ent-1) [Example 10, 2-{5-[(3-ethoxypyridin-2-yl)oxy]pyridin-3-yl}-N-[6-(trifluoromethyl)piperidin-3-yl]pyrimidine-5-carboxamide, trifluoroacetate salt, ENT-1] | 39 | – | Basic pKa [4]: 4.7
CCOc1cccnc1Oc1cncc(-c2ncc(C(=O)N[C@H]3CNCC[C@H]3C)cn2)c1 (racemic) [Example 20, rac-2-{5-[(3-ethoxypyridin-2-yl)oxy]pyridin-3-yl}-N-[(3R,4R)-4-methylpiperidin-3-yl]pyrimidine-5-carboxamide, trifluoroacetate salt] | 2100 | – | –
CCOc1cccnc1Oc1cncc(-c2ncc(C(=O)N[C@H]3CNC[C@H](F)C3)cn2)c1 [Example 7, 2-{5-[(3-ethoxypyridin-2-yl)oxy]pyridin-3-yl}-N-[(3R,5R)-5-fluoropiperidin-3-yl]pyrimidine-5-carboxamide, trifluoroacetate salt] | 42 | – | –
CCOc1cccnc1Oc1cncc(-c2ncc(C(=O)N[C@@H]3CNCC(F)(F)C3)cn2)c1 (single isomer, unassigned) [Example 19, N-[(3S)-5,5-difluoropiperidin-3-yl]-2-{5-[(3-ethoxypyridin-2-yl)oxy]pyridin-3-yl}pyrimidine-5-carboxamide or N-[(3R)-5,5-difluoropiperidin-3-yl]-2-{5-[(3-ethoxypyridin-2-yl)oxy]pyridin-3-yl}pyrimidine-5-carboxamide] | 240 | 34 ± 1.9 | Basic pKa [4]: 5.2; CLint (+/− Std Dev) [5]: 14 +/− 1.4 μL/min/10^6 cells
CCOc1cccnc1Oc1cncc(-c2ncc(C(=O)N[C@H]3CNCCC3(F)F)cn2)c1 (single isomer, unassigned) [Example 15, N-[(3S)-4,4-difluoropiperidin-3-yl]-2-{5-[(3-ethoxypyridin-2-yl)oxy]pyridin-3-yl}pyrimidine-5-carboxamide, trifluoroacetate salt or N-[(3R)-4,4-difluoropiperidin-3-yl]-2-{5-[(3-ethoxypyridin-2-yl)oxy]pyridin-3-yl}pyrimidine-5-carboxamide, trifluoroacetate salt] | 3300 | – | –
CCOc1cc(F)cnc1Oc1cncc(-c2ncc(C(=O)N[C@@H]3CNC[C@@H](F)C3)cn2)c1 [Example 2, 2-{5-[(3-Ethoxy-5-fluoropyridin-2-yl)oxy]pyridin-3-yl}-N-[(3S,5S)-5-fluoropiperidin-3-yl]pyrimidine-5-carboxamide] | 8.6 | – | IC50 [2]: 4.1 nM
CCOc1cccnc1Oc1cncc(-c2ncc(C(=O)N[C@@H]3CNCC[C@H]3F)cn2)c1 [Example 5, 2-{5-[(3-Ethoxypyridin-2-yl)oxy]pyridin-3-yl}-N-[(3R,4R)-4-fluoropiperidin-3-yl]pyrimidine-5-carboxamide] | 110 | <7 | –
CCOc1cccnc1Oc1cncc(-c2ncc(C(=O)N[C@@H]3CNCC(F)(F)C3)cn2)c1 (single isomer, unassigned) [Example 18, N-[(3S)-5,5-difluoropiperidin-3-yl]-2-{5-[(3-ethoxypyridin-2-yl)oxy]pyridin-3-yl}pyrimidine-5-carboxamide or N-[(3R)-5,5-difluoropiperidin-3-yl]-2-{5-[(3-ethoxypyridin-2-yl)oxy]pyridin-3-yl}pyrimidine-5-carboxamide] | 140 | – | IC50 [2]: 20 nM
CCOc1cc(F)cnc1Oc1cncc(-c2ncc(C(=O)N[C@H]3CNCC[C@@H]3F)cn2)c1 [Example 13, 2-{5-[(3-ethoxy-5-fluoropyridin-2-yl)oxy]pyridin-3-yl}-N-[(3S,4S)-4-fluoropiperidin-3-yl]pyrimidine-5-carboxamide, formate salt] | 57 | – | IC50 [2]: 3.8 nM
CCOc1cccnc1Oc1cncc(-c2ncc(C(=O)N[C@H]3CNCCC3(F)F)cn2)c1 (single isomer, unassigned) [Example 16, N-[(3S)-4,4-difluoropiperidin-3-yl]-2-{5-[(3-ethoxypyridin-2-yl)oxy]pyridin-3-yl}pyrimidine-5-carboxamide, trifluoroacetate salt or N-[(3R)-4,4-difluoropiperidin-3-yl]-2-{5-[(3-ethoxypyridin-2-yl)oxy]pyridin-3-yl}pyrimidine-5-carboxamide, trifluoroacetate salt] | – | – | CLint (+/− STD Dev) ([3]; trifluoroacetate salt): 17 µL/min/mg; CLint (+/− Std Dev) ([5]; trifluoroacetate salt): 4.7 +/− 1.4 μL/min/10^6 cells
CCOc1cccnc1Oc1cncc(-c2ncc(C(=O)N[C@H]3CNCC[C@@H]3F)cn2)c1 [Example 12, 2-{5-[(3-ethoxypyridin-2-yl)oxy]pyridin-3-yl}-N-[(3S,4S)-4-fluoropiperidin-3-yl]pyrimidine-5-carboxamide, trifluoroacetate salt] | 590 | <7 | –
CCOc1cccnc1Oc1cncc(-c2ncc(C(=O)NC3CCCNC3C)cn2)c1 (mixture of isomers) [Example 23, 2-{5-[(3-ethoxypyridin-2-yl)oxy]pyridin-3-yl}-N-(2-methylpiperidin-3-yl)pyrimidine-5-carboxamide, trifluoroacetate salt, mixture of stereoisomers] | 14000 | – | –
CCOc1cccnc1Oc1cncc(-c2ncc(C(=O)NC3CNCC(F)(F)C3)cn2)c1 (stereo not drawn) [Example 17, N-(5,5-difluoropiperidin-3-yl)-2-{5-[(3-ethoxypyridin-2-yl)oxy]pyridin-3-yl}pyrimidine-5-carboxamide] | 230 | – | –
CCOc1cccnc1Oc1cncc(-c2ncc(C(=O)N[C@H]3CC[C@H](C(F)(F)F)NC3)cn2)c1 (racemic) [Example 9, rac-2-{5-[(3-ethoxypyridin-2-yl)oxy]pyridin-3-yl}-N-[(3R,6S)-6-(trifluoromethyl)piperidin-3-yl]pyrimidine-5-carboxamide or rac-2-{5-[(3-ethoxypyridin-2-yl)oxy]pyridin-3-yl}-N-[(3R,6R)-6-(trifluoromethyl)piperidin-3-yl]pyrimidine-5-carboxamide] | – | >290 | –
CCOc1cc(F)cnc1Oc1cncc(-c2ncc(C(=O)N[C@@H]3CNCC[C@H]3F)cn2)c1 [Example 6, 2-{5-[(3-Ethoxy-5-fluoropyridin-2-yl)oxy]pyridin-3-yl}-N-[(3R,4R)-4-fluoropiperidin-3-yl]pyrimidine-5-carboxamide] | 80 | – | IC50 [2]: 2.4 nM
CCOc1cc(F)cnc1Oc1cncc(-c2ncc(C(=O)N[C@@H]3CNCC[C@@H]3F)cn2)c1.O=C(O)C(F)(F)F.O=C(O)C(F)(F)F [Example 1, 2-{5-[(3-Ethoxy-5-fluoropyridin-2-yl)oxy]pyridin-3-yl}-N-[(3R,4S)-4-fluoropiperidin-3-yl]pyrimidine-5-carboxamide, bis(trifluoroacetate) salt] | 5.8 | <7 | Basic pKa [4]: 7.7; CLint (+/− Std Dev) [5]: <2.7 +/− 0.72 μL/min/10^6 cells
CCOc1cccnc1Oc1cncc(-c2ncc(C(=O)N[C@H]3CC[C@H](C(F)(F)F)NC3)cn2)c1 (racemic) [Example 8, rac-2-{5-[(3-ethoxypyridin-2-yl)oxy]pyridin-3-yl}-N-[(3R,6S)-6-(trifluoromethyl)piperidin-3-yl]pyrimidine-5-carboxamide or rac-2-{5-[(3-ethoxypyridin-2-yl)oxy]pyridin-3-yl}-N-[(3R,6R)-6-(trifluoromethyl)piperidin-3-yl]pyrimidine-5-carboxamide] | – | – | Basic pKa [4]: 5.3
CCOc1cccnc1Oc1cncc(-c2ncc(C(=O)NC3CCC(C(F)(F)F)NC3)cn2)c1 (single isomer, unassigned; ent-2) [Example 11, 2-{5-[(3-ethoxypyridin-2-yl)oxy]pyridin-3-yl}-N-[6-(trifluoromethyl)piperidin-3-yl]pyrimidine-5-carboxamide, trifluoroacetate salt, ENT-2] | 4.4 | >290 | CLint (+/− Std Dev) [5]: 38 +/− 2.0 μL/min/10^6 cells
